≈ marks a conversion by molar mass, not a printed value. Entries after “also recorded” stand apart in the source; their conditions may differ. Like-named read-outs stand apart in the source and are kept apart here.
Assays:
[1] = system: LAV-2ROD; test: Anti-HIV activity assay, LAV-2ROD (MT-4 cells, MTT method); format: cell-based; conditions: for Selectivity index (SI): CD50/ED50, LAV-2ROD; for EC50: MT4, 120 h, MT-4 cells, five days, LAV-2ROD, read-out: ED50 (50% effective dose)
Description: (§1) Results in relation to HIV virus were obtained by the method of Pauwels et al, Journal of Virological Methods 20, 309 to 321 (1988), as follows:
(§2) MT-4 cells (2.5×10^4 /well) were infected with HIV (100 CCID50) and incubated in the presence of varying concentrations of the test compounds (added immediately after virus infection). After five days incubation at 37° C. in a CO2 incubator, the number of viable cells was assessed by the MTT (tetrazolium) method. Anti-viral activity and cytotoxicity of the compounds are expressed as ED50 (50% effective dose) and CD50 (50% cytotoxic dose), respectively. SI (selectivity index=CD50 /ED50.
(§3) These are given in Table 8 and Table 9 below in relation to HTLV-IIIB and LAV-2ROD viruses.

[2] = system: HTLV-IIIB; test: Anti-HIV activity assay, HTLV-IIIB (MT-4 cells, MTT method); format: cell-based; conditions: for Selectivity index (SI): CD50/ED50, HTLV-IIIB; for EC50: Human immunodeficiency virus 1, MT4, 120 h, MT-4 cells, five days, HTLV-IIIB, read-out: ED50 (50% effective dose)
Description: as §1, §2, §3

[3] = in vitro; format: cell-based; conditions: human, mt-4 cells, CD50 (50% cytotoxic dose)
Description: as §1, §2

[4] = system: MT-4 cells; test: in vitro; format: cell-based; conditions: human, 120 h
Description: as §1, §2

[5] = system: herpes simplex virus Type I; test: Inactivation of virus (30 minutes incubation, plaque assay); format: cell-based, Type 1, Troisbel strain; conditions: for log reduction at 5 µg/mL: 5 mg/l; for Virus titre (inactivation of virus): 30 minutes, control 5.4 × 10^4 (GLA-alcohol), 4.5 × 10^4 (GLA-AZT)
Description: 1. A virus solution containing 2×10^5 pfu/ml is prepared in phosphate buffered saline (Dulbecco's A).
2. The compound to be tested is made up in Dulbecco's medium A in a suitable range of dilutions.
3. Equal volumes of the virus and drug solution are mixed together. Control solutions without drug are also used.
4. The virus and drug are incubated for an appropriate period of time, in this example, thirty minutes.
5. The numbers of active viral particles in the solution are assayed as in items 4 and 5 under A.
The results are shown below (Table 6). In the Table, the figures are concentrations of viral particles present after incubation of the virus for 30 minutes with solutions of the drugs.

[6] = system: herpes simplex virus Type I (HSV I); test: Inhibition of virus replication (plaque assay, BHK-21 cells); format: cell-based, Type 1, Troisbel strain; conditions: for Inhibition of viral replication (in words): up to 100 mg/l; for log reduction at 0.1 µg/mL: 0.1 mg/l
Description: 1. Mono-layers of baby hamster kidney cells (BHK-21) are prepared in Petri dishes containing ETC medium (Eagle's minimal essential medium +10% tryptose phosphate broth +10% new born calf serum).
2. After incubation the medium is poured off to leave the layer of cells attached to the Petri dish. A solution containing virus, specifically herpes simplex virus Type I (HSV I) for example, in ETC medium is then added to the dish and incubated with intermittent rocking for one hour to allow the virus to adsorb to the cells of the mono-layer. Unadsorbed virus is then removed by pouring off the virus-containing medium and washing twice with new sterile medium. Then new medium is added to each Petri dish. At this stage various concentrations of drug can be added to the medium.
3. […] First the dishes are frozen to -70° C. and thawed to disrupt the mono-layer and break up the cells. Then the medium and the disrupted cells are transferred to bijou bottles and sonicated to break down the cells completely and to release all the virus particles the cells contain. The sonicated medium is then diluted with fresh sterile ETC medium to give concentrations of the original Petri dish fluid of 10^-2, 10^-4, 10^-6 and 10^-8.
4. The number of virus particles (plaque forming units) in the dilutions is then assayed. A standard number of BHK cells (usually 8×10^6) is added to 2 ml of the diluted solutions and incubated for one hour, with cautious, gentle shaking, and 8 ml of Eagle's minimal essential medium +2% new born calf serum + carboxymethyl cellulose is then added to the cell suspension. This medium has gelling properties which prevent spreading of the virus through the medium and which encourage the formation of discrete plaques in cell mono-layers. The medium from each dilution is then dispensed into Petri dishes and incubated for two to three days.
5. The number of plaques formed is then counted and the amount of active virus expressed as the number of plaque forming units (pfus) as follows. The medium is poured off and the cell mono-layer is fixed using 10% formol saline and stained with dilute carbol fuchsin. The number of plaques in each Petri dish is counted. Based on the dilutions, the number of plaque forming virus particles in the original solutions is calculated.
In the Table, the figures are the concentration of viral particles in pfu/ml present in the cells + medium at the end of the replication stage (3).

[7] = Human alphaherpesvirus 1, 0.5 h, 1 mg/l, read-out: Inactivation of virus (log10 reduction in virus titre)
[8] = Human alphaherpesvirus 1, 0.5 h, read-out: Inactivation of virus (log10 reduction in virus titre)
[9] = Human alphaherpesvirus 1, BHK-21, 24 h, read-out: Inhibition of viral replication (log10 reduction in virus titre)
[10] = Human alphaherpesvirus 1, BHK-21, 24 h, 1 mg/l, read-out: Inhibition of viral replication (log10 reduction in virus titre)

SMILES	Selectivity index (SI) [1]	EC50 [1]	Selectivity index (SI) [2]	EC50 [2]	CC50 at 120 h [3]	CD50 (50% cytotoxic dose) [4]	% in chloroform phase (partition co-efficients, water/chloroform)	Virucidal activity / inactivation of herpes virus (in words) [5]	log reduction at 1 µg/mL [5, 7]	log reduction at 5 µg/mL [5, 8]	Inhibition of herpes virus replication (in words) [6]	log reduction at 1 µg/mL [6, 10]	also measured
CCCCC/C=C\C/C=C\CCCCCCCC(=O)OC[C@H]1O[C@@H](n2cc(C)c(=O)[nH]c2=O)C[C@@H]1N=[N+]=[N-] [AK 2]	7999	0.000744 µg/mL (≈ 0.0014 µM)	26008	0.000365 µg/mL (≈ 0.000689 µM)	9.49 µg/mL (≈ 17.9 µM)	5.9512 µg/mL	> 99%	virucidal	2.2	2.8	to inhibit its replication	–	Virucidal activity / inactivation of herpes virus (in words) ([5]; listed as AZT-LA): able both to inactivate the herpes virus; Inhibition of viral replication (in words) [6]: no inhibition
CCCCC/C=C\C/C=C\C/C=C\CCCCC(=O)OC[C@H]1O[C@@H]2C[C@H]1Oc1nc(=O)c(C)cn12 [AK 3, GLA - Anhydrothymidine]	< 1	> 40 µg/mL	< 1	> 40 µg/mL	17.7 µg/mL (≈ 36.6 µM)	16.8593 µg/mL	> 98%	virucidal	2.7	–	–	–	log reduction at 0.5 µg/mL ([5]; Human alphaherpesvirus 1, 0.5 h, 0.5 mg/l, read-out: Inactivation of virus (log10 reduction in virus titre)): 1.6; log reduction at 25 µg/mL ([6]; Human alphaherpesvirus 1, BHK-21, 24 h, 25 mg/l, read-out: Inhibition of viral replication (log10 reduction in virus titre)): 0.5; log reduction at 50 µg/mL ([6]; Human alphaherpesvirus 1, BHK-21, 24 h, 50 mg/l, read-out: Inhibition of viral replication (log10 reduction in virus titre)): 0.9; log reduction at 100 µg/mL ([6]; Human alphaherpesvirus 1, BHK-21, 24 h, 100 mg/l, read-out: Inhibition of viral replication (log10 reduction in virus titre)): 1.2
CCCCC/C=C\C/C=C\CCCCCCCC(=O)OC[C@H]1O[C@@H]2C[C@H]1Oc1nc(=O)c(C)cn12 [AK 4]	< 1	> 40 µg/mL	< 1	> 40 µg/mL	18.2 µg/mL (≈ 37.3 µM)	17.4332 µg/mL	> 99%	virucidal	2.75	2.9	–	–	Inhibition of viral replication (in words) [6]: no inhibition
CCCCC/C=C\C/C=C\C/C=C\CCCCC(=O)Nc1nc2c(ncn2COCCOC(=O)CCCC/C=C\C/C=C\C/C=C\CCCCC)c(=O)[nH]1 [AK 10, digamma-linolenyl acyclovir]	< 1	> 40 µg/mL	< 1	> 8 µg/mL	–	–	> 99%	virucidal; also recorded: very effective	0.94	1.54	very effective	1.13	log reduction at 1 µg/mL ([5]; Human alphaherpesvirus 1, 0.5 h, 1 mg/liter solution, read-out: Inactivation of virus, log): 1; killing at 1 µg/mL ([5]; Human alphaherpesvirus 1, 0.5 h, 1 mg/liter solution, read-out: Inactivation of virus, percent): 90%; log reduction at 0.1 µg/mL [6, 9]: 0.45; log reduction at 0.5 µg/mL ([6]; Human alphaherpesvirus 1, BHK-21, 24 h, 0.5 mg/l, read-out: Inhibition of viral replication (log10 reduction in virus titre)): 0.86; log reduction at 1 µg/mL ([6]; Human alphaherpesvirus 1, BHK-21, 24 h, 1 mg/liter solution, read-out: Reduction of virus replication, log): 1; inhibition at 1 µg/mL ([6]; Human alphaherpesvirus 1, BHK-21, 24 h, 1 mg/liter solution, read-out: Reduction of virus replication, percent): 90%
CCCCC/C=C\C/C=C\CCCCCCCC(=O)Nc1nc2c(ncn2COCCOC(=O)CCCCCCC/C=C\C/C=C\CCCCC)c(=O)[nH]1 [AK 11]	< 1	> 40 µg/mL	< 1	> 40 µg/mL	13.1 µg/mL (≈ 17.5 µM)	10.1674 µg/mL	> 99%	virucidal; also recorded: very effective	0.15	1.55	very effective	1.69	log reduction at 5 µg/mL ([6]; Human alphaherpesvirus 1, BHK-21, 24 h, 5 mg/l, read-out: Inhibition of viral replication (log10 reduction in virus titre)): 2.46
CCCCC/C=C\C/C=C\C/C=C\CCCCC(=O)Nc1nc2c(ncn2COCCO)c(=O)[nH]1 [AK 12]	–	–	–	–	–	–	–	virucidal	0.6	1.4	–	3.9	log reduction at 0.1 µg/mL [6, 9]: 1.9
CCCCC/C=C\C/C=C\CCCCCCCC(=O)Nc1nc2c(ncn2COCCO)c(=O)[nH]1 [AK 13]	–	–	–	–	–	–	–	virucidal	1.3	1.8	–	4.3	log reduction at 0.1 µg/mL [6, 9]: 2.45
CCCCC/C=C\C/C=C\C/C=C\CCCCC(=O)OC[C@@H]1C=C[C@H](n2cc(C)c(=O)[nH]c2=O)O1 [AK 14]	110	0.08 µg/mL (≈ 0.165 µM)	134	0.076 µg/mL (≈ 0.157 µM)	10.3 µg/mL (≈ 21.2 µM)	8.84 µg/mL	–	–	–	–	–	–	–
CCCCC/C=C\C/C=C\CCCCCCCC(=O)OC[C@@H]1C=C[C@H](n2cc(C)c(=O)[nH]c2=O)O1 [AK 15]	378	0.064 µg/mL (≈ 0.132 µM)	256	0.064 µg/mL (≈ 0.132 µM)	16.5 µg/mL (≈ 33.9 µM)	24.23 µg/mL	–	–	–	–	–	–	–
Cc1cn([C@H]2C=C[C@@H](CO)O2)c(=O)[nH]c1=O [AK 16, dideoxy-didehydro thymidine, reference compound]	1196	0.039 µg/mL (≈ 0.174 µM)	574	0.077 µg/mL (≈ 0.343 µM)	44.4 µg/mL (≈ 198 µM)	46.65 µg/mL	–	–	–	–	–	–	–
CCCCC/C=C\C/C=C\C/C=C\CCCCCO [GLA alcohol, reference compound]	–	–	–	–	–	–	–	able to inactivate the herpes simplex virus	–	–	no effect at all	–	Virus titre (inactivation of virus) ([5]; 5 μg/ml): 3.0 × 10^3; Virus titre (inactivation of virus) ([5]; 10 μg/ml): 2.2 × 10^2; Virus titre (inactivation of virus) ([5]; 25 μg/ml): < 1.0 × 10^2
CCCCC/C=C\C/C=C\CCCCCCCC(=O)O [LA, linoleic acid, reference compound]	–	–	–	–	–	–	–	active at concentrations comparable to GLA; also recorded: same effect in inactivating the herpes virus	–	–	completely unable to inhibit viral replication	–	–

Source: US5216142A, “Anti-virals” (Efamol Holdings plc, priority 1989, dated 1993)
